13 molecules from patent US20230107216A1, “PANTETHEINE DERIVATIVES AND USES THEREOF” (Comet Therapeutics, Inc., priority 2018, published 2023) can be followed below.

The structures appear in SMILES notation.

One assay concerns Leigh Syndrome (LS) primary fibroblasts GM03672. Put plainly: NADP+/NADPH (NADP/NADPH-Glo), Leigh fibroblasts GM03672. The format is cell-based. The conditions noted are these: Homo sapiens, Fibroblast, Leigh GM03672 P8, assay condition B (1 mM glucose, 2 mM L-glutamine, 1 mM pyruvate, 10% FBS), 24h, read-out: Increase in Total NADP+ + NADPH. On the procedure: Primary adherent fibroblasts were cultured in minimum essential medium (MEM) (Gibco, 25030081) supplemented with 2 mM L-Glutamine (Gibco, 25030081), 15% fetal bovine serum (FBS) (Gibco, 26400044) and 1% penicillin/streptomycin (Gibco, 5140122) at 37° C. and 5% CO2. Cells were collected for either passaging or experiment at ˜70-80% confluence. Cells were obtained by trypsinization and seeded in cell culture microplates either white plate (Thermo Fisher Scientific, 152028) for luminescent measurement or black plate (Thermo Fisher Scientific, 165305) for fluorescent based read out for different assays listed below. Cells were obtained by trypsinization and […] were seeded and allowed to adhere for 16-18 hours to have confluency around 70-80% in the cell well with culture media. After 24 hours prior to measurements (37° C., 5% CO2) media was changed to Dulbecco's Modified Eagle Medium (DMEM, Agilent Seahorse cat #103575-100) with the appropriate supplements as stated below.
Primary fibroblasts assayed were Propionic Acidemia (PA) (GM03590 Coriell Institute for Medical Research, Tsi 6337 Trans-Hit Bio), Methylmalonic Acidemia (MMA) (Tsi 5224 Trans-Hit Bio), Subnormal activation of pyruvate dehydrogenase complex (PDH) (GM01503 Coriell Institute for Medical Research), Very long-chain acyl-CoA dehydrogenase (VLCAD) (GM17475), Leigh Syndrome (LS) (GM03672, GM13411 Coriell Institute for Medical Research), Pyruvate Carboxylase Deficiency (PC) (GM00444 Coriell Institute for Medical Research). 10 μM of Compounds were added for 2 hours in PA, MMA lines and for 24h for the other fibroblast lines.
Assay was performed according to manufacturer instructions (NADP+/NADPH-Glo Assay Promega, G9082). Assay required a plate for total measurement of NADP+/NADPH and a plate for individual measurement of NADP+ or NADPH. For every assay a 12-point standard curve is prepared ranging from 400 nM to 0.625 nM. Media is removed and replaced with 50 μl of PBS for both assays.
For individual NADP+/NADPH measurements, 50 μl of 1% DTAB (Sigma, D5047) (cell lysis reagent) in 0.2N NaOH was added to the plates and 100 μl of lysate was split into two plates with 50 μl each from which ratio of NADP/NADPH can be calculated. 25 μl of 0.4N HCl were added to the NADP+ plates and both NADP+ and NADPH plates were heated at 60° C. for 15 minutes. The acid and heat treatment destroyed NADPH allowing individual NADP+ measurements while heating in basic conditions destroys NADP+ allowing individual NADPH measurement. After 15 minutes plates were allowed to come to room temperature and Trizma base (Sigma, T1699) was added to the NADP+ plates to neutralize the acid and HCl Trizma hydrochloride (Sigma, T2694) was added to the NADPH plates. The NADNADPH glo reagent was prepared by adding 125 μl of NAD cycling substrate, 125 μl of reductase, 125 μl of reductase substrate, 125 μl NAD cycling enzyme to a total of the 25 ml of NAD GLO reagent. 1:1 ratio of total volume of reagent was added to the individual NADP+, NADPH measurements (total 100 μl) and 50 μl were added for the total NAD/NADPH measurements. Luminescence was measured for 30-60 minutes within the linear range.
A total dead cell count was performed as described in Example 817 and only alive cells were used for analysis.
For `CC(C)(CO)[C@@H](O)C(=O)NCCC(=O)NCCSC(=O)CC(=O)CCC(=O)O` [Compound 2, 6-[(2-[3-[(2R)-2,4-dihydroxy-3,3-dimethylbutanamido]propanamido]ethyl)sulfanyl]-4,6-dioxohexanoic acid], the activation at 10 µM was no less than 10%. With `CC(=O)OCC(C)(C)[C@@H](O)C(=O)NCCC(=O)NCCSC(=O)CC(=O)CCC(=O)O` [Compound 140, 6-[(2-[3-[(2R)-4-(acetyloxy)-2-hydroxy-3,3-dimethylbutanamido]propanamido]ethyl)sulfanyl]-4,6-dioxohexanoic acid], the activation at 10 µM is no less than 10%. In the case of `COC(=O)CC(C(C)=O)C(=O)SCCNC(=O)CCNC(=O)[C@H](O)C(C)(C)CO` (stereo partly drawn) [Compound 410], the activation at 10 µM is no less than 10%. On the same count and under the same terms, the value for `C[C@H](O)CC(=O)CC(=O)SCCNC(=O)CCNC(=O)[C@H](O)C(C)(C)CO` [Compound 1306, (2R)-2,4-dihydroxy-N-[2-[(2-[[(5S)-5-hydroxy-3-oxohexanoyl]sulfanyl]ethyl)carbamoyl]ethyl]-3,3-dimethylbutanamide] was no less than 10%.

Still in this assay, the particulars now being: Homo sapiens, Fibroblast, Leigh GM03672 P9, assay condition A (10 mM glucose, 2 mM L-glutamine, 1 mM pyruvate, 10% FBS), 24h, read-out: Increase in Total NADP+ + NADPH.
For `COC(=O)CCC(=O)SCCNC(=O)CCNC(=O)[C@H](OC(=O)CN)C(C)(C)CO` [Compound 1294, methyl 4-[(2-[3-[(2R)-2-[(2-aminoacetyl)oxy]-4-hydroxy-3,3-dimethylbutanamido]propanamido]ethyl)sulfanyl]-4-oxobutanoate], the activation at 10 µM is no less than 10%. The same measure, in the same setting: the figure for `COC(=O)CCC(=O)SCCNC(=O)CCNC(=O)[C@H](OC(=O)CNC(C)=O)C(C)(C)CO` [Compound 1298, methyl 4-[(2-[3-[(2R)-2-[(2-acetamidoacetyl)oxy]-4-hydroxy-3,3-dimethylbutanamido]propanamido]ethyl)sulfanyl]-4-oxobutanoate] is no less than 10%.

The next assay relates to tyrosine hydroxylase positive mesencephalic neurons injured by MPP+. Put plainly: Neuroprotective effect on damage induced by MPP+ on culture of mesencephalic neurons. It counts as cell-based. The conditions noted are these: Rattus norvegicus, Neuron, MPP+ 50 μM, 48h, read-out: % reversion of TH positive neurons (MPTP-mediated degradation of dopaminergic neurons). The source says: A female Wistar rat (Janvier; France) of 15 days gestation was terminated by cervical dislocation, the fetuses were removed from the uterus and their brains were harvested and placed in ice-cold medium (Leibovitz's L15 medium, Gibco). Only ventral mesencephalic flexure was used for the cell preparations. The midbrain was dissociated by trypsinization. The reaction was stopped, and the suspension was triturated and centrifuged. The pellet of dissociated cells was resuspended in chemically defined medium consisted of Neurobasal (Gibco), containing B27 supplement (Gibco) and L-glutamine (Gibco), 10 ng/ml (BDNF; Pepro Tech, France) and 1 ng/ml (GDNF; Pepro Tech).
Viable primary rat embryo mesencephalic cells were counted and seeded on 96-multi-wells plate precoated with poly-L-lysine. Cells were maintained in a humidified incubator at 37° C. in 5% CO2-95% air atmosphere and medium changed on day 2. On day 6, the culture medium was removed and replaced by new media without neurotrophic factors containing the compounds of the present disclosure (50-10 μM) or vehicle (0.1% DMSO). After 1h exposure, injury of mesencephalon neuronal cultures was induced by MPP^+ (50 μM) for further 48h. A mixture of the growth factors GDNF (1 ng/ml) and BDNF (10 ng/ml) were used as reference compound. On day 8, the tyrosine hydroxylase positive neurons were evaluated. Cultures were fixed 30 min at 4° C. with paraformaldehyde in PBS (4%, Thermo Scientific, 28908). After, cells were permeabilized with 0.1% Triton X100 for 30 min, saturated with PBS containing 3% of BSA (bovine serum albumin) and incubated 2h with anti-tyrosine hydroxylase antibody (Sigma, 1:10000; clone TH-2) at 1/10000 in PBS containing 0.5% of BSA. Cells were washed three times with PBS containing 0.5% of BSA and incubated 1h with goat anti mouse antibody coupled with AF488 (Invitrogen A11001) diluted at 1/1000 in PBS containing 0.5% of BSA. Finally, nuclei were stained with DAPI at 1/1000 in PBS containing 0.5% of BSA. After rinsing with PBS, the plate was visualized and examined with Cell Insight HCS (Thermo Scientific) to determine the number of tyrosine hydroxylase positive cells per well.
The results for each well were expressed as a percentage by setting the density of tyrosine hydroxylase positive cells under control conditions to 100%. Then the result for each condition was reported as mean±SEM from 4 independent cultures.
A global analysis of the data was performed using a one-way analysis of variance (ANOVA), followed by Fisher's Protected Least Significant Difference when applicable. The level of significance was set to p<0.05.
`CC(C)(CO)[C@@H](O)C(=O)NCCC(=O)NCCSC(=O)CCC(=O)O` [Compound 1, (R)-4-((2-(3-(2,4-dihydroxy-3,3-dimethylbutanamido)propanamido)ethyl)thio)-4-oxobutanoic acid]: the inhibition at 10 µM was no less than 30%. `C[C@@H](O)CC(=O)SCCNC(=O)CCNC(=O)[C@H](O)C(C)(C)CO` [Compound 38, S-2-{3-[(R)-2,4-dihydroxy-3,3-dimethylbutyrylamino]propionylamino} ethyl (R)-3-hydroxybutanethioate]: the inhibition at 10 µM was no less than 60%. On to `C[C@@H](O)CC(=O)CC(=O)SCCNC(=O)CCNC(=O)[C@H](O)C(C)(C)CO` [Compound 42, (2R)-2,4-dihydroxy-N-[2-[(2-[[(5R)-5-hydroxy-3-oxohexanoyl]sulfanyl]ethyl)carbamoyl]ethyl]-3,3-dimethylbutanamide], for which the inhibition at 10 µM was no less than 60%. With `CC(C)(COC(=O)OCC[N+](C)(C)C)[C@@H](O)C(=O)NCCC(=O)NCCSC(=O)CCC(=O)O` [Compound 116, [2-([[(3R)-3-[[2-([2-[(3-carboxypropanoyl)sulfanyl]ethyl]carbamoyl)ethyl]carbamoyl]-3-hydroxy-2,2-dimethylpropoxy]carbonyl]oxy)ethyl]trimethylazanium], the inhibition at 10 µM is no less than 30%.

In the case of `CC(=O)OCC(C)(C)[C@@H](O)C(=O)NCCC(=O)NCCSC(=O)CC(=O)CCC(=O)O` [Compound 140, 6-[(2-[3-[(2R)-4-(acetyloxy)-2-hydroxy-3,3-dimethylbutanamido]propanamido]ethyl)sulfanyl]-4,6-dioxohexanoic acid], the inhibition at 10 µM was no less than 60%. `CC(C)(CO)[C@@H](O)C(=O)NCCC(=O)NCCSC(=O)[C@@H](N)Cc1ccc(O)c(O)c1` [Compound 371, (2R)—N-[2-[(2-[[(2S)-2-amino-3-(3,4-dihydroxyphenyl)propanoyl]sulfanyl]ethyl)carbamoyl]ethyl]-2,4-dihydroxy-3,3-dimethylbutanamide]: the inhibition at 10 µM was no less than 60%. Turning to `COC(=O)CC(C(C)=O)C(=O)SCCNC(=O)CCNC(=O)[C@H](O)C(C)(C)CO` (stereo partly drawn) [Compound 410], the inhibition at 10 µM was no less than 60%. In the case of `CC(=O)SCCNC(=O)CCNC(=O)[C@H](O)C(C)(C)COC(=O)[C@@H](N)Cc1ccc(O)c(O)c1` [Compound 498, (3R)-3-[(2-[[2-(acetylsulfanyl)ethyl]carbamoyl]ethyl)carbamoyl]-3-hydroxy-2,2-dimethylpropyl (2S)-2-amino-3-(3,4-dihydroxyphenyl)propanoate], the inhibition at 10 µM is no less than 60%. On to `CC(=O)SCCNC(=O)CCNC(=O)[C@H](O)C(C)(C)COC(=O)CN` [Compound 560, (3R)-3-[(2-[[2-(acetylsulfanyl)ethyl]carbamoyl]ethyl)carbamoyl]-3-hydroxy-2,2-dimethylpropyl 2-aminoacetate], for which the inhibition at 10 µM was no less than 30%.
